Data from patent US20110053833A1, “SYNTHETIC PEPTIDES AND THEIR USE” (priority 2007, published 2011).

Assays:
Format in all cases: cell-based
[1] = tested on: E. coli; experiment: Microbicidal activity, peptides incubated with E. coli for 2 h in BP; conditions: 2 h incubation in BP; two fold dilution steps starting at 100 μg/ml
Method: (§1) The peptides were incubated with E. coli, S. aureus or C. albicans for 2 h in BP. The peptides were diluted in two fold steps starting at 100 μg/ml or 200 μg/ml (C. albicans).

[2] = tested on: S. aureus; experiment: Microbicidal activity, peptides incubated with S. aureus for 2 h in BP; conditions: 2 h incubation in BP; two fold dilution steps starting at 100 μg/ml
Method: as §1

[3] = tested on: C. albicans; experiment: Microbicidal activity, peptides incubated with C. albicans for 2 h in BP; conditions: 2 h incubation in BP; two fold dilution steps starting at 200 μg/ml
Method: as §1

[4] = tested on: E. coli, S. aureus or C. albicans; experiment: Microbicidal activity, overall comparison with native hLF-derived peptide; conditions: versus HLBD1
Method: as §1

| Substance | MMC99% E. coli [1] | MMC99% S. aureus [2] | MMC99% C. albicans [3] | microbicidal activity compared with the corresponding peptide derived from the sequence of native hLF [4] |
| --- | --- | --- | --- | --- |
| EATKCFQWKRNMRKVRGPPVSCIKR (EATKCFQWKRNMRKVRGPPVSCIKR; a fragment of human lactoferrin corresponding to aa 16-40 wherein one aa has been substituted) [HLBD1Q24K, synthetic peptide according to the present invention] | 12 µg/mL | 25 µg/mL | 50 µg/mL | considerably higher |
| EATKCFQWQRNMRKVRGPPVSCIKR (EATKCFQWQRNMRKVRGPPVSCIKR; a fragment of human lactoferrin corresponding to aa 16-40 wherein two aa has been substituted) [HLBD1, reference compound] | 50 µg/mL | 50 µg/mL | 200 µg/mL |  |
